Here are results for six molecules from patent US20260240878A1, “PTP1B/TC-PTP DUAL INHIBITORS AND PROTEIN DEGRADERS” (Purdue Research Foundation, priority 2023, published 2026).

In experiment [1] the test system is compound 47-mediated PTP1B and TC-PTP degradation. Description: Degradation mechanism verification in HEK293 cells (pretreatment with pathway blockers). Type of experiment: cell-based. The note with it: pretreatment then 100 nM compound 47 for 4 hours. As to the method:
Cells were pre-treated with indicated concentration of MLN4924 (prevents ubiquitination), MG132 (blocks proteasome activity), lenalidomide (prevents CRBN binding) or (S,R,S)-AHPC-Me (prevents VHL binding) followed by 4 hours of treatment with compound 47 at 100 nM showing compound 47-mediated PTP1B/TC-PTP degradation depends on the ubiquitination-proteasome pathway. No degradation was observed when cells were treated with 100 nM cis-compound 47 (inactivated degrader) for 4 hours.
PROTAC-mediated protein degradation requires the obligatory formation of afunctional ternary complex of target protein-PROTAC-E3 ligase to enable target protein ubiquitination by the E3 ligase, followed by proteasomal degradation. The VHL E3 ligase dependency for compound 47 induced PTP1B and TC-PTP degradation was confirmed by preparing cis-isomer of compound 47 (cis-47) in which the VHL E3 ligand was replaced with (S,S,S)-AHPC-Me, an epimer of (S,R,S)-AHPC-Me with diminished affinity for VHL. […] Moreover, the addition of the VHL ligand (S,R,S)-AHPC-Me reduced the compound 47-mediated degradation of the two proteins (FIG. 6A). In contrast, pretreatment of the cell with lenalidomide, a ligand for cereblon (another E3 ligase commonly employed for PROTAC development), had no effect on compound 47-mediated PTP1B and TC-PTP degradation (FIG. 6A). […] The compound 47 mediated PTP1B and TC-PTP degradation and proteasome dependency were also verified by immunofluorescent imaging (FIGS. 6B and 6C).

The next experiment concerns pSTAT1. Description: STAT1 phosphorylation in IFN-γ stimulated HEK293 cells (western blot). Type of experiment: cell-based. The note with it: Homo sapiens; HEK293 cells, 16 hours, 20 ng/ml IFN-γ; read-out: EC50 of pSTAT1 activation. The protocol: Wild-type HEK293 cells were treated with compound 47 or ABBV-CLS-484 for 16 hours, and stimulated with 20 ng/ml IFN-γ to induce JAK-STAT signaling pathway activation.
Abbvie and Calico developed a potent PTP1B/TC-PTP inhibitor ABBV-CLS-484 (disclosed in International PCT application WO2019246513), and it is currently being evaluated as a treatment for locally advanced or metastatic tumors (NCT04777994).

The target of experiment [2] is T1, PTP1B (Homo sapiens, UniProt P18031).
T1 sequence (P18031 1-435): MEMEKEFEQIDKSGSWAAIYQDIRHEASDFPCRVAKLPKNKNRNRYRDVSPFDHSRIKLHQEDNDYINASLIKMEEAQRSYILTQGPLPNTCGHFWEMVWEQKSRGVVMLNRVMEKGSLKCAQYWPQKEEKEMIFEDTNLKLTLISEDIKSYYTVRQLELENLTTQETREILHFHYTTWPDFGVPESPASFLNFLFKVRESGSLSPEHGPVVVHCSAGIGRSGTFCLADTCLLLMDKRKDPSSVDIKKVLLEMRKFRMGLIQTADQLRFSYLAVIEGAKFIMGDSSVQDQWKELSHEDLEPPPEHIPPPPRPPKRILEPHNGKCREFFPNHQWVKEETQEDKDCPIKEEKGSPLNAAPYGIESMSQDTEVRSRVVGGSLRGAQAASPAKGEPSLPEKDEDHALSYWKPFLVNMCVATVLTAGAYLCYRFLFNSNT
Description: PTP activity assay with pNPP substrate (IC50, Ki, mode of inhibition). The settings on record: pNPP 2 mM, pH 7.0, 25° C.; read-out: IC50, nM PTP1B. Type of experiment: biochemical. The method, boiled down:
(§1)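 Hydrolysis of pNPP measured spectrophotometrically in pH 7.0 DMG buffer (EDTA, NaCl, DTT, BSA) at 25 °C, 0.4 nM enzyme. IC50 at 2 mM pNPP (Km) over an inhibitor titration; mode of inhibition and Ki from rates across varied pNPP and inhibitor levels, fitted to enzyme kinetic models.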

Experiment [3] deals with T2, TC-PTP (Homo sapiens, UniProt P17706).
T2 sequence (P17706 1-415): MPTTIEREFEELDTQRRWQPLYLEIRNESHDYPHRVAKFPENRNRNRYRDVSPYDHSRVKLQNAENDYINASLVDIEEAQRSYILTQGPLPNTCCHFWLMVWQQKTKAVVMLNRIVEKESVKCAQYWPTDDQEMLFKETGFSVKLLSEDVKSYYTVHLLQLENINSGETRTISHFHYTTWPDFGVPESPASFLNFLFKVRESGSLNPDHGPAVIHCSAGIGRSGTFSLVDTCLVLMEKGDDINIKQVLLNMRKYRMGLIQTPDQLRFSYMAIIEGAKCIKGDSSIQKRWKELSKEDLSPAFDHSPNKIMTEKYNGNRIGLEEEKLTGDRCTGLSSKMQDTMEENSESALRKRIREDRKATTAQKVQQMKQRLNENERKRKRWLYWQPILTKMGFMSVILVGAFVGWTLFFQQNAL
Described as above. Type of experiment: biochemical. The settings on record: pNPP 2 mM, pH 7.0, 25° C.; read-out: IC50, nM TC-PTP. The method, boiled down:
as §1

Experiment [4] addresses T1, PTP1B. The experiment is described as follows: Degradation assay in HEK293 cells (immunoblotting). Type of experiment: cell-based. Also noted: Degradation assay was conducted in HEK293 cells with 1 μM degrader and 24 hours incubation; endogenous in cells; host or cells: HEK293. The settings on record: 100 nM, 4 hours. A general note: Immunoblotting shows a protein as a band on a membrane.

In experiment [5] the target is T2, TC-PTP. The experiment is described as follows: Degradation assay in HEK293 cells (immunoblotting). Type of experiment: cell-based. The settings on record: 100 nM, 4 hours. Also noted: Degradation assay was conducted in HEK293 cells with 1 μM degrader and 24 hours incubation; endogenous in cells; host or cells: HEK293.

*1 amine or outer side, *2 acyl side, *3 side chain or, on linkers, in order; H or OH if unused. Where a SMILES comes first, the peptide text is derived from it. [ ]: non-standard residue; d: D form. The star is where a group is joined. NHCH2(1,3-C6H4)CH2CO = O=C(Cc1cccc(CN[*:1])c1)[*:2]; F2Pmp = N[C@@H](Cc1ccc(C(F)(F)P(=O)(O)O)cc1)C(=O)O; Phenylacetyl(4-OH,3-OMe) = COc1cc(CC(=O)*)ccc1O; Benzoyl(3-Br,4-Me) = Cc1ccc(C(=O)*)cc1Br; X1 = Cc1ncsc1-c1ccc([C@H](C)N*)cc1; cisHyp = O=C(O)[C@@H]1C[C@H](O)CN1; Tle = CC(C)(C)[C@H](N)C(=O)O; Cbz = O=C(OCc1ccccc1)*

As to `Cc1ncsc1-c1ccc([C@H](C)NC(=O)[C@@H]2C[C@@H](O)CN2C(=O)[C@@H](N)C(C)(C)C)cc1` [(S,R,S)-AHPC-Me], in experiment [1], the “effect of pretreatment on compound 47-mediated PTP1B and TC-PTP degradation” value (from here on “effect of pretreatment”) is given as “reduced”.

Take `CC(C)CCN[C@@H]1CCc2cc(O)c(N3CC(=O)NS3(=O)=O)c(F)c2C1` [ABBV-CLS-484, reference compound]: the EC50 – broadly, the concentration needed to bring the measured effect to its halfway point – with pSTAT1 worked out at 79.7 nM.

With `CC(C)C[C@@H](C=O)NC(=O)[C@H](CC(C)C)NC(=O)[C@H](CC(C)C)NC(=O)OCc1ccccc1` [MG-132] (Cbz-Leu-Leu-Leu-aldehyde), in experiment [1], the “effect of pretreatment” value is given as “markedly reduced”.

Turning to `NS(=O)(=O)OC[C@@H]1C[C@@H](n2ccc3c(N[C@H]4CCc5ccccc54)ncnc32)C[C@@H]1O` [MLN-4924], the “effect of pretreatment” value in experiment [1] is listed as “markedly reduced”.

Consider `COc1cc(CC(=O)N[C@@H](Cc2ccccc2)C(=O)N[C@@H](Cc2ccc(C(F)(F)P(=O)(O)O)cc2)C(=O)N[C@@H](CCCCNC(=O)c2ccc(C)c(Br)c2)C(=O)NCc2cccc(CC(=O)N[C@H](C(=O)N3C[C@@H](O)C[C@H]3C(=O)N[C@@H](C)c3ccc(-c4scnc4C)cc3)C(C)(C)C)c2)ccc1O` [cis-47] ({Phenylacetyl(4-OH,3-OMe)}-F[F2Pmp]K(Benzoyl(3-Br,4-Me))[NHCH2(1,3-C6H4)CH2CO][Tle][cisHyp]-X1), for which the results for the concentration for half-maximal inhibition (IC50) at PTP1B [2] and at TC-PTP [3] were 25.1 ± 1.6 nM and 29.7 ± 2.1 nM, respectively. At PTP1B [4], the PTP1B degradation result is listed as “failed to degrade”. On TC-PTP [5], the TC-PTP degradation entry is on record as “failed to degrade”.

In the case of `Nc1cccc2c1CN(C1CCC(=O)NC1=O)C2=O` (stereo not drawn) [lenalidomide], the “effect of pretreatment” value in experiment [1] is recorded as “had no effect”.
